Assay results: publication PMC3573960 (Molecular Neurodegeneration, 2012)

How the values were obtained:
[1] = tested on: Tg2576 mice; assay: Acute treatment study in Tg2576 mice, brain Aβ by ELISA after TBS extraction; settings: 4 h
Method: Aβ peptide levels were quantified by sandwich ELISA. Plates were coated overnight at 4°C with either human anti-AβTotal (amino acids [aa] 27–37) or rodent anti-Aβ1-x (aa 1–8) rabbit polyclonal antibodies. For detection of Aβ38 and Aβ42, plates were coated with antibodies specific for the carboxyl-terminal neoepitope of each peptide. Antibodies were from Dr. Pankaj Mehta (Institute for Basic Research in Developmental Disabilities, Staten Island, NY) [58].
The 10 and 30 mg/kg doses were a solution and a suspension, respectively. […] After extraction of the brain, olfactory bulbs and hindbrain were removed and the cerebral hemispheres were cut into 4 pieces. […] All tissue samples were weighed, frozen in liquid nitrogen, and stored at −80°C until analysis.
In order to examine both soluble and insoluble pools of Aβ, sequential extraction of Tg2576 mouse brain samples was performed to produce 4 pools of Aβ, essentially as described elsewhere [37]. Briefly, brains were homogenized in 25 mM TBS, pH 7.4 with protease inhibitors (Mini Complete™) to release the soluble Aβ into the resulting supernatants after high speed ultracentrifugation. […] The extracted Aβ from each step was subjected to ELISA for human Aβ42, Aβ38, and AβTotal, as described above.

[2] = tested on: γ-secretase (EphA4); assay: EphA4 CTF accumulation in rat primary neocortical cultures (Western blot); settings: 24 h, up to 10 μM
Method: Protein concentration of the lysate was determined by the BCA method, and 30 μg of total protein were loaded on a 10% Bis-Tris gel (Invitrogen). EphA4 CTF was visualized using an anti-EphA4-CTF antibody (Abnova, Walnut, CA) and an IRDye800CW® secondary antibody (Rockland Immunochemicals, Inc., Gilbertsville, PA). Detection was performed using an Odyssey scanner (LiCor Biosciences) and blots quantified using ImageJ software (available at http://rsbweb.nih.gov/ij).

[3] = MTS cytotoxicity assay in rat primary neocortical cultures; format: cell-based; settings: CD, primary neocortical cultures from E17 rat embryos
Method: Primary cultures were established from the neocortex of E17 rat embryos obtained from timed pregnant CD rats (Charles River Laboratories, Wilmington, MA). Following tissue dissection and trituration, the cultures were suspended in Neurobasal™ medium (Invitrogen) supplemented with 10% horse serum (Sigma-Aldrich) and 520 μM L-glutamine. Cells were plated at 50,000 cells/well in Costar 96-well poly-D-lysine-coated plates. Following incubation at 37°C and 5% CO2 for 4–5 h, the plating medium was exchanged with Neurobasal® medium with 2% B-27® supplement (Invitrogen), 520 μM of L-glutamine, and 1% penicillin-streptomycin. […] Cultures were incubated with compound for 24 h for analysis of Aβ peptides by sandwich ELISA and cytotoxicity by MTS assay.

[4] = tested on: Tg2576 mice; assay: Western blot of APP species and total Aβ in Tg2576 mouse brain; format: in vivo; settings: 50 weeks
Method: For determination of APP α- and β-CTFs in Tg2576 mouse brain, hemisphere samples were thawed in ice-cold homogenization buffer (150 mg of tissue/mL, 50 mM Tris and 150 mM NaCl, pH 7.4) with protease inhibitor cocktail (Mini Complete™, Roche Applied Science, Penzberg, Germany). Homogenized samples were spun at 435,000 g for 50 min at 4°C. The supernatant was discarded and the pellet resuspended in the same volume of homogenization buffer containing 0.5% Triton®-X 100, 1% deoxycholate, and 3% SDS. The pellets were triturated with a pipette until resuspended and incubated on a rotator for 1 h at 4°C. The samples were then centrifuged at 435,000 g for 50 min at 4°C and the detergent-soluble supernatant was collected. Protein concentration for membrane (detergent soluble) fraction was determined using the BCA method (Pierce, Rockford, IL). Thirty micrograms of total protein were separated on a Tricine 10-20% gel (Invitrogen) and transferred to a nitrocellulose membrane. Blots were probed with an anti-APP-CTF antibody (Sigma-Aldrich) or anti-Aβ antibody (clone 6E10) followed by incubation with IRDye secondary antibodies (Li-Cor Biosciences).
Male Tg2576 and WT mice were both derived from crosses of male Tg2576 mice and female B6SJLF1 mice (Taconic) and were singly housed upon arrival. […] Some animals were euthanized as described above. For histological studies, a subset of mice were euthanized by CO2 asphyxiation and transcardially perfused with cold 0.9% NaCl. The right hemispheres were immersion fixed in fresh 4% paraformaldehyde in 0.1 M phosphate buffer, pH 7.4 for 1 h, transferred to a 15% sucrose cryoprotectant for 24 h at room temperature, and on the next day, frozen in isopentane chilled by dry ice for 1 min. The left cerebral hemisphere was cut into 2 pieces, weighed, and frozen.

[5] = tested on: γ-secretase; assay: APP CTF accumulation in H4-APP751 cell lysates (Western blot); format: cell-based, human; settings: H4-APP751 cells, 16 h
From the text: Cells were lysed in situ and the resulting lysate cleared of nuclei by centrifugation, as described elsewhere. Samples were fractionated by SDS-PAGE on a 12% NuPage gel (Invitrogen), transferred to a nitrocellulose membrane, and immunoblotted with an anti-APP-CTF antibody (Sigma-Aldrich).

[6] = tested on: Aph1AL containing γ-secretase complexes; assay: Cell-free AICD production from APP β-CTF (Western blot); format: biochemical, murine; settings: up to 100 μM
Method: DAPT was used as a reference positive control for the assay. For each assay condition, a 5-μL microsomal fraction, containing 1% CHAPSO (3-[(3-cholamidopropyl)dimethylammonio]-2-hydroxy-1-propanesulfonate) from murine embryonic fibroblasts (MEF) lacking the Aph-1A, Aph-1B, and Aph-1C genes (triple knock out) and rescued with Aph-1AL, was prepared in a reaction mixture of 5 μL substrate (recombinant APP β-CTF 3-Flag-tagged) at 0.8 μM, 0.0125% phosphatidylethanolamine, 0.1%, phosphatidylcholine, 0.05% sphingomyelin, and 8.9 μL PIPES (piperazine-N,N′-bis[−ethanesulfonic acid]) buffer. […] For detection of AICD, one-half of the reaction mixture was purified by a methanol-chloroform extraction in order to remove lipids and hydrophobic proteins (e.g., APP β-CTF). This purified fraction was further analyzed by SDS-PAGE and Western blotting. AICD was detected with an ANTI-FLAG® antibody (Sigma-Aldrich). The other half of the reaction mixture was used to analyze the levels of Aβ1-40 and Aβ1-42 by AlphaLisa (Perkin Elmer, Waltham, MA).

[7] = tested on: Tg2576 mice; assay: Chronic treatment of Tg2576 mice, sequentially extracted brain Aβ by ELISA; format: in vivo, mouse; settings: 50 weeks
From the text: (§1) Male Tg2576 and WT mice were both derived from crosses of male Tg2576 mice and female B6SJLF1 mice (Taconic) and were singly housed upon arrival. […] Some animals were euthanized as described above. For histological studies, a subset of mice were euthanized by CO2 asphyxiation and transcardially perfused with cold 0.9% NaCl. […] The left cerebral hemisphere was cut into 2 pieces, weighed, and frozen.

[8] = Measurement of EVP-0015962 in brain (LC-MS/MS); format: in vivo, mouse; settings: for range of brain concentrations: C57BL/6 mice, 3 or 7 days; for concentration at 50 weeks: male, mouse, brain (cerebellum), oral
Method: Mice were placed on the food formulations for 3 or 7 days and were euthanized, as described above, approximately 1 h after the onset of the light cycle.
as §1
Cerebellums were homogenized in a Mini-BeadBeater (Biospec Products, Inc., Bartlesville, OK).

[9] = Measured LogD; format: physicochemical
[10] = tested on: γ-secretase (NotchΔE); assay: NICD production (S3 cleavage of NotchΔE) in transfected HEK293 cells; settings: HEK293 cells expressing NotchΔE, 20 h, up to 30 μM
Method: HEK293 cells (700,000 cells per assay condition) were transiently transfected with a NotchΔE, myc-tagged construct to produce a truncated Notch1 substrate, which is constitutively cleaved by γ-secretase (S3 cleavage) [62]. Control transfections were performed with an empty vector. […] The amounts of NICD and total Notch were quantified and NICD was expressed as a percentage of total Notch. The DMSO control condition was set at 100%. Cell viability was determined using the CellTiter-Blue® Cell Viability Assay (Promega).

## O=C(O)[C@H](CC1CCC1)c1cc(Cl)c(OCC(F)(F)F)c(-c2ccc(C(F)(F)F)cc2)c1 [EVP-0015962, (R)-2-(5-chloro-6-(2,2,2-trifluoroethoxy)-4’-(trifluoromethyl)biphenyl-3-yl)-3-cyclobutylpropanoic acid]
[1]; 10 mg/kg p.o., TBS extraction (NS)
  decrease in brain Aβ42 compared to vehicle-treated mice: 22%
[1]; 30 mg/kg p.o., TBS extraction (p < 0.05)
  decrease in brain Aβ42 compared to vehicle-treated mice: 39%
[1]; 10 or 30 mg/kg p.o.
  brain AβTotal: remained unchanged
[2]
  EphA4 CTF accumulation: did not result in EphA4 CTF accumulation
[3]
  IC50 at 24 h: > 30 µM
[4]; 20 mg/kg/day
  reduction in total Aβ by Western blot vs control diet: 42%
[4]; 60 mg/kg/day
  reduction in total Aβ by Western blot vs control diet: 81%
[4]; 20 or 60 mg/kg/day
  levels of full length APP, β-CTF, and α-CTF in brain: no increases
[5]; 1 nM to 10 μM
  Full length APP: not altered
[5]; concentrations up to 10 μM
  accumulation of APP α- or β-CTFs: did not cause the accumulation
[6]
  production of AICD from APP β-CTF: did not prevent
[7]; 20 mg/kg/day
  Aβ38 in the TBS soluble fraction: did not produce a significant increase
  percent reduction in Aβ42 in the TBS soluble fraction: 53%
  reduction in AβTotal in the formic acid extractable fraction: 49%
  reduction in formic acid extractable Aβ42: 53%
[7]; 60 mg/kg/day
  age-related increase in soluble and insoluble Aβ42: prevented the dramatic increase
  increase in Aβ38 in the TBS soluble fraction: 78%
  percent reduction in Aβ42 in the TBS soluble fraction: 89%
  reduction in AβTotal in the formic acid extractable fraction: 64%
  reduction in formic acid extractable Aβ42: 86%
[7]; 20 or 60 mg/kg/day
  Aβ38 in the formic acid extractable fraction: not significantly changed
  AβTotal in the TBS soluble fraction: unchanged
[7]; lower dose (20 mg/kg/day)
  age-related increase in Aβ42: partially effective
[8]; food formulation 20 mg/kg/day
  range of brain concentrations: 1.5 to 3.1 µM
[8]; food formulation 60 mg/kg/day
  range of brain concentrations: 4.9 to 9.7 µM
[8]; Tg2576 mice, 50 weeks vs short-term treatments
  accumulation or cytochrome P450 enzyme induction (from brain concentrations): did not demonstrate accumulation or cytochrome P450 enzyme induction
[8]; Tg2576 mice, 20 mg/kg/day in food
  concentration at 50 weeks: 2.5 ± 0.2 µM
[8]; Tg2576 mice, 60 mg/kg/day in food
  concentration at 50 weeks: 8.3 ± 0.6 µM
[8]; mice
  oral bioavailability: orally bioavailable
[9]
  logD: 3.88
[10]
  levels of NICD produced: did not affect
